The series deals with mouse liver microsomes, T1/2, LC-MS/MS. The experiment in a line: Allosteric/Competitive Inhibitors of Caspase 1: Metabolic Stability Profiling. Conditions: at 1 µM; active compounds read high. The source says: The caspases (Cysteine Aspartyl Protease) comprise a related family of 14 dimeric proteases that are critical mediators of apoptosis (programmed cell death) and inflammation. The caspases represent an important class of drug targets for stroke, ischemia, cancer and inflammatory diseases. The goal of this project was to identify compounds that act as selective inhibitors caspase 1. To identify both allosteric and competitive inhibitors of caspase 1, the enzyme was screened using a pro-fluorescent substrate in a qHTS format. […] Mouse liver microsomes are created through broken up endoplasmic reticulum from mouse liver. These liver microsomes contain many drug metabolizing enzymes, such as Cytochome P-450s and flavin-containing monooxygenases. Because metabolism is major way of drug clearance, this is an important result. H Chemical Genomics Center [NCGC] NIH Molecular Libraries Probe Production Centers Network [MLPCN] MLSCN Grant: 1 X01 MH078950-01 PI Name: Dr. James Wells
1uM of compound in incubated in mouse liver microsome; the reference compound is ketanserin. Compounds are incubated at 37 degrees C for different time periods: 0, 5, 15, 30, 45, and 60 minutes. Samples are analyzed with LC-MS/MS.

Molecules are shown by their SMILES.

Data on one compound can be found in PubChem BioAssay AID504731 (National Center for Advancing Translational Sciences (NCATS), 2011).

For orientation: half-life means how long it takes for the measured level to halve. Turning to `CC(C)(C)[C@H](NC(=O)c1ccc(N)c(Cl)c1)C(=O)N1CCC[C@H]1C(=O)N[C@H](C#N)CC(=O)O`, the half-life is 3.43 h.
